From patent US20100298141A1, “SUBSTITUTED PYRIDINE N-OXIDE HERBICIDES” (E. I. DU PONT DE NEMOURS AND COMPANY, priority 2007, published 2010)

What was measured:
broadleaf signalgrass = test: Test G preemergence test; type: in vivo, Brachiaria platyphylla; conditions: scale 0 to 100
giant foxtail = test: Test G preemergence test; type: in vivo, Setaria faberii; conditions: scale 0 to 100
large crabgrass = test: Test G preemergence test; type: in vivo, Digitaria sanguinalis; conditions: scale 0 to 100
annual bluegrass = test: Test D preemergence test; type: in vivo, Poa annua; conditions: scale 0 to 100
Outline: (§1)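 Seeds planted and treated preemergence with test chemicals formulated in a non-phytotoxic solvent mixture containing surfactant. A dash means no test result.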

spring wheat = test: Test D preemergence test; type: in vivo, Triticum aestivum; conditions: scale 0 to 100
Outline: as §1

winter wheat = test: Test D preemergence test; type: in vivo, Triticum aestivum; conditions: scale 0 to 100
Outline: as §1

field violet = test: Test D preemergence test; type: in vivo, Viola arvensis; conditions: scale 0 to 100
Outline: as §1

eastern black nightshade = test: Test G preemergence test; type: in vivo, Solanum ptycanthum; conditions: scale 0 to 100
sorghum = test: Test G preemergence test; type: in vivo, Sorghum vulgare; conditions: scale 0 to 100
downy bromegrass = test: Test D preemergence test; type: in vivo, Bromus tectorum; conditions: scale 0 to 100
Outline: as §1

Italian ryegrass = test: Test D preemergence test; type: in vivo, Lolium multiflorum; conditions: scale 0 to 100
Outline: as §1

rice = test: Test B flooded paddy test; type: in vivo, Oryza sativa; conditions: Flood, 250 g ai/ha, 13 to 15 days; scale 0 to 100, 0 no effect, 100 complete control
Outline: (§2)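 Ratings were visual and made relative to untreated controls after 13 to 15 greenhouse days.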

wild oat = test: Test D preemergence test; type: in vivo, Avena fatua; conditions: scale 0 to 100
Outline: as §1

millet = test: Test G preemergence test; type: in vivo, Panicum miliaceum; conditions: scale 0 to 100
yellow foxtail = test: Test G preemergence test; type: in vivo, Pennisetum glaucum; conditions: scale 0 to 100
winter barley = test: Test D preemergence test; type: in vivo, Hordeum vulgare
Outline: as §1

goosegrass = test: Test G preemergence test; type: in vivo, Eleusine indica; conditions: scale 0 to 100
itchgrass = test: Test G preemergence test; type: in vivo, Rottboellia cochinchinensis; conditions: scale 0 to 100
woolly cupgrass = test: Test G preemergence test; type: in vivo, Eriochloa villosa; conditions: scale 0 to 100
yellow nutsedge = test: Test G preemergence test; type: in vivo, Cyperus esculentus; conditions: scale 0 to 100
littleseed canarygrass = test: Test D preemergence test; type: in vivo, Phalaris minor; conditions: scale 0 to 100
Outline: as §1

millet foxtail = test: Test G preemergence test; type: in vivo, Setaria italica; conditions: scale 0 to 100
umbrella sedge = test: Test B flooded paddy test; type: in vivo, Cyperus difformis; conditions: Flood, 250 g ai/ha, 13 to 15 days; scale 0 to 100, 0 no effect, 100 complete control
Outline: as §2

fall panicum = test: Test G preemergence test; type: in vivo, Panicum dichotomiflorum; conditions: scale 0 to 100
cotton = test: Test G preemergence test; type: in vivo, Gossypium hirsutum; conditions: scale 0 to 100

Cn1nc(C(F)(F)F)c(C[S+]([O-])c2cccc[n+]2[O-])c1OC(F)F (stereo not shown) [Compound 3]
Plant response rating, Signalgrass (broadleaf signalgrass; 31 g ai/ha): 0
Plant response rating, Signalgrass (broadleaf signalgrass; 62 g ai/ha): 45
Plant response rating, Signalgrass (broadleaf signalgrass; 125 g ai/ha): 60
Plant response rating, Signalgrass (broadleaf signalgrass; 250 g ai/ha): 95
Plant response rating, Foxtail, Giant (giant foxtail; 31 g ai/ha): 0
Plant response rating, Foxtail, Giant (giant foxtail; 62 g ai/ha): 75
Plant response rating, Foxtail, Giant (giant foxtail; 125 g ai/ha): 100
Plant response rating, Foxtail, Giant (giant foxtail; 250 g ai/ha): 100
Plant response rating, Crabgrass, Large (large crabgrass; 31 g ai/ha): 0
Plant response rating, Crabgrass, Large (large crabgrass; 62 g ai/ha): 60
Plant response rating, Crabgrass, Large (large crabgrass; 125 g ai/ha): 100
Plant response rating, Crabgrass, Large (large crabgrass; 250 g ai/ha): 100
Plant response rating, Bluegrass (annual bluegrass; 31 g ai/ha): 0
Plant response rating, Bluegrass (annual bluegrass; 62 g ai/ha): 20
Plant response rating, Bluegrass (annual bluegrass; 125 g ai/ha): 100
Plant response rating, Bluegrass (annual bluegrass; 250 g ai/ha): 100
Plant response rating, Wheat, Spring (spring wheat; 31 g ai/ha): 0
Plant response rating, Wheat, Spring (spring wheat; 62 g ai/ha): 0
Plant response rating, Wheat, Spring (spring wheat; 125 g ai/ha): 15
Plant response rating, Wheat, Spring (spring wheat; 250 g ai/ha): 20
Plant response rating, Wheat, Winter (winter wheat; 31 g ai/ha): 0
Plant response rating, Wheat, Winter (winter wheat; 62 g ai/ha): 10
Plant response rating, Wheat, Winter (winter wheat; 125 g ai/ha): 15
Plant response rating, Wheat, Winter (winter wheat; 250 g ai/ha): 40
Plant response rating, Field Violet (field violet; 31 g ai/ha): 70
Plant response rating, Field Violet (field violet; 62 g ai/ha): 70
Plant response rating, Field Violet (field violet; 125 g ai/ha): 85
Plant response rating, Field Violet (field violet; 250 g ai/ha): 100
Plant response rating, Nightshade (eastern black nightshade; 31 g ai/ha): 0
Plant response rating, Nightshade (eastern black nightshade; 62 g ai/ha): 60
Plant response rating, Nightshade (eastern black nightshade; 125 g ai/ha): 65
Plant response rating, Nightshade (eastern black nightshade; 250 g ai/ha): 100
Plant response rating, Sorghum (sorghum; 31 g ai/ha): 0
Plant response rating, Sorghum (sorghum; 62 g ai/ha): 10
Plant response rating, Sorghum (sorghum; 125 g ai/ha): 55
Plant response rating, Sorghum (sorghum; 250 g ai/ha): 100
Plant response rating, Bromegrass, Downy (downy bromegrass; 31 g ai/ha): 0
Plant response rating, Bromegrass, Downy (downy bromegrass; 62 g ai/ha): 45
Plant response rating, Bromegrass, Downy (downy bromegrass; 125 g ai/ha): 55
Plant response rating, Bromegrass, Downy (downy bromegrass; 250 g ai/ha): 55
Plant response rating, Ryegrass, Italian (Italian ryegrass; 31 g ai/ha): 0
Plant response rating, Ryegrass, Italian (Italian ryegrass; 62 g ai/ha): 35
Plant response rating, Ryegrass, Italian (Italian ryegrass; 125 g ai/ha): 45
Plant response rating, Ryegrass, Italian (Italian ryegrass; 250 g ai/ha): 95
Plant response rating, Rice, Transplanted (rice): 60
Plant response rating, Oat, Wild (wild oat; 31 g ai/ha): 0
Plant response rating, Oat, Wild (wild oat; 62 g ai/ha): 0
Plant response rating, Oat, Wild (wild oat; 125 g ai/ha): 10
Plant response rating, Oat, Wild (wild oat; 250 g ai/ha): 20
Plant response rating, Millet (millet; 31 g ai/ha): 0
Plant response rating, Millet (millet; 62 g ai/ha): 0
Plant response rating, Millet (millet; 125 g ai/ha): 15
Plant response rating, Millet (millet; 250 g ai/ha): 90
Plant response rating, Foxtail, Yellow (yellow foxtail; 31 g ai/ha): 0
Plant response rating, Foxtail, Yellow (yellow foxtail; 62 g ai/ha): 75
Plant response rating, Foxtail, Yellow (yellow foxtail; 125 g ai/ha): 100
Plant response rating, Foxtail, Yellow (yellow foxtail; 250 g ai/ha): 100
Plant response rating, Barley (winter barley; Preemergence, 62 g ai/ha, scale 0 to 100): 0
Plant response rating, Barley (winter barley; Preemergence, 125 g ai/ha, scale 0 to 100): 0
Plant response rating, Barley (winter barley; Preemergence, 31 g ai/ha, scale 0 to 100): 0
Plant response rating, Barley (winter barley; preemergence, 250 g ai/ha, scale 0 (no effect) to 100 (complete control)): 15
Plant response rating, Goosegrass (goosegrass; 31 g ai/ha): 65
Plant response rating, Goosegrass (goosegrass; 62 g ai/ha): 80
Plant response rating, Goosegrass (goosegrass; 125 g ai/ha): 100
Plant response rating, Goosegrass (goosegrass; 250 g ai/ha): 100
Plant response rating, Itchgrass (itchgrass; 31 g ai/ha): 0
Plant response rating, Itchgrass (itchgrass; 62 g ai/ha): 45
Plant response rating, Itchgrass (itchgrass; 125 g ai/ha): 60
Plant response rating, Itchgrass (itchgrass; 250 g ai/ha): 90
Plant response rating, Cupgrass, Woolly (woolly cupgrass; 31 g ai/ha): 0
Plant response rating, Cupgrass, Woolly (woolly cupgrass; 62 g ai/ha): 40
Plant response rating, Cupgrass, Woolly (woolly cupgrass; 125 g ai/ha): 95
Plant response rating, Cupgrass, Woolly (woolly cupgrass; 250 g ai/ha): 100
Plant response rating, Nutsedge, Yellow (yellow nutsedge; 31 g ai/ha): 0
Plant response rating, Nutsedge, Yellow (yellow nutsedge; 62 g ai/ha): 15
Plant response rating, Nutsedge, Yellow (yellow nutsedge; 125 g ai/ha): 65
Plant response rating, Nutsedge, Yellow (yellow nutsedge; 250 g ai/ha): 65
Plant response rating, Canarygrass (littleseed canarygrass; 31 g ai/ha): 0
Plant response rating, Canarygrass (littleseed canarygrass; 62 g ai/ha): 40
Plant response rating, Canarygrass (littleseed canarygrass; 125 g ai/ha): 100
Plant response rating, Canarygrass (littleseed canarygrass; 250 g ai/ha): 100
Plant response rating, Foxtail, Millet (millet foxtail; 31 g ai/ha): 0
Plant response rating, Foxtail, Millet (millet foxtail; 62 g ai/ha): 80
Plant response rating, Foxtail, Millet (millet foxtail; 125 g ai/ha): 100
Plant response rating, Foxtail, Millet (millet foxtail; 250 g ai/ha): 100
Plant response rating, Umbrella Sedge (umbrella sedge): 100
Plant response rating, Fall Panicum (fall panicum; 31 g ai/ha): 0
Plant response rating, Fall Panicum (fall panicum; 62 g ai/ha): 40
Plant response rating, Fall Panicum (fall panicum; 125 g ai/ha): 90
Plant response rating, Fall Panicum (fall panicum; 250 g ai/ha): 95
Plant response rating, Cotton (cotton; 31 g ai/ha): 0
Plant response rating, Cotton (cotton; 62 g ai/ha): 0
Plant response rating, Cotton (cotton; 125 g ai/ha): 10
Plant response rating, Cotton (cotton; 250 g ai/ha): 25
